# Test results taken from PMC12443555, “Structural modifications to pregnane neurosteroids alter inhibition of LPS/Lipid A binding at the MD-2 activation site within the TLR4 signaling complex” (Frontiers in Immunology, 2025).
# Molecular target: T1, Myeloid Differentiation factor 2 (MD-2) (Homo sapiens, UniProt Q9Y6Y9)
# T1 construct: gene LY96; Recombinant human MD-2 (R&D Systems 1787-MD-050/CF)
# T1 sequence (Q9Y6Y9 19-160): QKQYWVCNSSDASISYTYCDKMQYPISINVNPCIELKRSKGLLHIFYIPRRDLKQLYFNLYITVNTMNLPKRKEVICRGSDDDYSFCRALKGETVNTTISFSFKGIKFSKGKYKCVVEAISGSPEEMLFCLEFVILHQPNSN
# Assay: SPR competition against Lipid A ([…]) on immobilized MD-2
# Type: binding
# Settings: read-out: Inhibition Constant (Ki)
row,SMILES,Ki [nM]
1,C[C@@]1(O)CC[C@H]2[C@H](CC[C@@H]3[C@@H]2CC[C@]2(C)[C@@H](C(=O)Cn4nccn4)CC[C@@H]32)C1 [SGE 516],61.3
2,"C[C@]12CC[C@@H](O)C[C@@H]1CC[C@@H]1[C@@H]2CC[C@]2(C)[C@@H](C(=O)CO)CC[C@@H]12 [3α,5α-THDOC]",57.6
3,CC(=O)[C@H]1CC[C@H]2[C@@H]3CCC4=CC(=O)CC[C@]4(C)[C@H]3CC[C@]12C [progesterone],49.4
